According to ChEMBL document CHEMBL1150845, “Two new constituents of Isodon excisus and their evaluation in an apoptosis inhibition assay” (J Nat Prod, 2001):
≈ marks a conversion by molar mass, not a printed value.

Test system: U-937
Assay: Inhibition of etoposide-induced apoptosis in human U937 cells assessed as inhibition of caspase 3 induction after 7 hrs
Assay type: functional, cell-based
Conditions: U-937, 7 h

Work on COc1cc(/C=C/C(=O)NC[C@@H](OC)c2ccc(O)cc2)ccc1O yielded an IC50 of 10.2 µg/mL (≈ 29.7 µM).
COC(=O)C[C@H](OC(=O)/C=C/c1ccc(O)c(O)c1)c1ccc(O)c(O)c1 was tested, and the IC50 was 52.4 µg/mL (≈ 140 µM).
Work on S=C(S)N1CCCC1 [PYRROLIDINE DITHIOCARBAMATE] yielded an IC50 of 8.3 µg/mL (≈ 56.4 µM).
